One block for each molecule: values may come before it.
Columns and labels:
[1] = tested on: seeds of thale cress (Arabidopsis thaliana, Col-0); experiment: Thale cress seed germination test; type: in vivo
Experimental: Seeds of thale cress (Arabidopsis thaliana, Col-0) were immersed in 500 μL of an aqueous solution of 70% ethanol for 30 minutes, subsequently in 500 μL of a 100% ethanol solution for 1 minute, washed five times in 1 mL of distilled water, then immersed in distilled water and, in a dark place, vernalized at 4° C. for 3 days. A solution of the sample in methanol was put in a 1.5 mL-microtube, and methanol was removed therefrom under reduced pressure. An aqueous solution of 0.5% agar (containing ½ MS medium inorganic salts) at 70° C. was added thereto and stirred, and subsequently the obtained mixture was placed in a 96-well plate to prepare the medium containing the sample. All samples were prepared so as to have a concentration of 3 μM of the compound in Examples 1 to 9 and Comparative Example 1. Further, when ABA is applied, the ABA concentration was adjusted to 0.3 μM. 20 to 30 vernalized seeds of thale cress were planted in each well and cultured at 22° C. under continuous light to monitor the number of seeds germinated over time. The germination rate was calculated by the following formula (1). Note that those cultured in medium prepared using methanol in the same manner were used as controls. […] Germination rate (%)=Number of seeds germinated/Number of seeds planted×100 (1)
The same test was carried out as in Test Example 1 with the concentrations of the compound of Example 1 for treatment varying from 0.3 μM to 30 μM.
Similarly, the same test was carried out with the concentrations of the compound of Example 2 for treatment varying from 0.3 μM to 30 μM.
The same test was carried out as in Test Example 2 with the concentrations of the compounds for treatment varying from 0.3 μM to 3 μM to compare the recovery effects on seed germination rate of the compound of Example 1 and the compound of Comparative Example 1.

recombined PYL5 = target: T1, recombined PYL5 (Arabidopsis thaliana, UniProt Q9FLB1); experiment: Bonding affinity measurement using an isothermal titration calorimeter; type: binding, thale cress; conditions: ITC, 20° C., sodium phosphate buffer
T1 construct: 6xHis (N); made in house; host or cells: Escherichia coli BL21-codonplus(DE3)-RIPL
T1 sequence (Q9FLB1 1-203): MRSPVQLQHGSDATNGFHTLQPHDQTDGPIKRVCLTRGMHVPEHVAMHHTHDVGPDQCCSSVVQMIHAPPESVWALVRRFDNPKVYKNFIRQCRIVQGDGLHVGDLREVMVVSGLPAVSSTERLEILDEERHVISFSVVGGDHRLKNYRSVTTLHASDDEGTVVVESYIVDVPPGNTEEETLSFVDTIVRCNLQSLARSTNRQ
Experimental: A sodium phosphate buffer solution of a recombined PYL5 was prepared in the same procedure as in Test Example 5, and put in a reaction cell of an isothermal titration calorimeter (GE Healthcare, MicroCal iTC200), and a sodium phosphate buffer solution of the compound of Example 1 was put in the syringe. Then, the calorimeter was set to 20° C. and the measurement was carded out. The same measurement as above was also carried out for the compounds of Examples 7 to 9.

[2] = tested on: thale cress (Arabidopsis thaliana, Col-0) seedlings; experiment: Thale cress growth test; type: in vivo; conditions: 50 μM compound co-applied with 5 μM ABA, sprayed once a day; three weeks' culture
Experimental: Seeds of thale cress (Arabidopsis thaliana, Col-0) were sequentially immersed for 1 minute respectively in 500 μL of an aqueous solution of 5% bleach+1% SDS, 500 μL of a 70% aqueous solution of ethanol and 500 μL of a 70% aqueous solution of ethanol, washed five times in 1 mL of sterilized water, and then suspended in a 0.1% aqueous solution of agar. 25 mL each of germination medium (containing ½ MS medium inorganic salts) sterilized in an autoclave was added to a sterilized plastic petri dish, in which 60 to 80 seeds suspended in the 0.1% aqueous solution of agar were planted and, in a dark place, the seeds were vernilized at 4° C. for 3 days. The seeds were cultured at 22° C. under continuous light for 10 days. 40 g […] of sterilized soil (organic culture soil:vermiculite=1:1) was added to a plastic pot (50 mm×50 mm×50 mm, 35 mm bottom surface×35 mm height). Six plastic pots thus provided were placed in a 3000 mL-tray, 300 mL (depth 10 mm) of an aqueous solution of 1000-fold diluted HYPONeX (tradename (registered trademark), product of HYPONeX JAPAN CORP., LTD.) was added thereto and five roots each of thale cress seedlings were transplanted from the plastic petri dish. The seedlings were cultured at 22° C. under conditions of 16 hour light period-8 hour dark period, and 1 mL of an aqueous solution (prepared so as the final concentration of the compound of Example 7 to be 50 μM) of 0.1% DMSO (containing the compound of Example 7)+0.1% Approach BI (tradename (registered trademark), product of Kao Corporation) was sprayed once a day. Further, 300 mL of an aqueous solution of 2000-fold diluted HYPONeX was added every week. The same treatment as above was carried out using the compound of Comparative Example 1. Note that the seedlings, to which 1 mL of an aqueous solution of 0.1% DMSO+0.1% Approach BI without containing the above compound was sprayed once a day, were used as controls. […]

[3] = tested on: lettuce (Lactuca saliva) seeds; experiment: Lettuce seed germination test; type: in vivo; conditions: co-applied with ABA
[4] = tested on: bok choy (Brassica rapa var. chinensis) seeds; experiment: Bok choy seed germination test; type: in vivo; conditions: co-applied with ABA
[5] = 3 μM compound co-applied with 0.3 μM ABA

- Kd (recombined PYL5): 480 ± 100 nM
- ΔG (recombined PYL5): -9.6 ± 0.1 kcal/mol
- ΔH (recombined PYL5): -9.7 ± 0.2 kcal/mol
- −TΔS (recombined PYL5): 1.2 kcal/mol
SMILES: CCCCCCSC1=C(C)[C@](O)(/C=C/C(C)=C\C(=O)O)C(C)(C)CC1=O [Comparative Example 1, 3′-hexylsulfanyl-abscisic acid, reference compound]
- Germination rate (%) 24 Hours later [1, 5]: 0%
- Germination rate (%) 36 Hours later [1, 5]: 28%
- Germination rate (%) 48 Hours later [1, 5]: 67%
- Germination rate (%) 60 Hours later [1, 5]: 89%
- Germination rate (%) 24 Hours later ([1]; compound alone, 3 μM): 0%
- Germination rate (%) 36 Hours later ([1]; compound alone, 3 μM): 85%
- Germination rate (%) 48 Hours later ([1]; compound alone, 3 μM): 100%
- Germination rate (%) 60 Hours later ([1]; compound alone, 3 μM): 100%
- Growth suppression effect of ABA on thale cress [2]: the growth suppression effect of ABA was not substantially improved

SMILES: CC1=C[C@@H](OCC#Cc2cccc3ccccc23)CC(C)(C)[C@@]1(O)/C=C/C(C)=C\C(=O)O [Example 2]
- Germination rate (%) 24 Hours later [1, 5]: 9%
- Germination rate (%) 36 Hours later [1, 5]: 22%
- Germination rate (%) 48 Hours later [1, 5]: 53%
- Germination rate (%) 60 Hours later [1, 5]: 89%
- Recovery of seed germination rate decreased by ABA ([1]; compound 0.3 μM to 30 μM co-applied with ABA): seed germination rates decreased by ABA are recovered
- Germination rate (%) 24 Hours later ([1]; compound alone, 3 μM): 11%
- Germination rate (%) 36 Hours later ([1]; compound alone, 3 μM): 27%
- Germination rate (%) 48 Hours later ([1]; compound alone, 3 μM): 77%
- Germination rate (%) 60 Hours later ([1]; compound alone, 3 μM): 100%
- Recovery of seed germination rate decreased by ABA [3]: recovered the seed germination rates once decreased by ABA
- Recovery of seed germination rate decreased by ABA [4]: recovered the seed germination rates once decreased by ABA
